Active and inactive are the calls of the source. The rule behind the calls is not given here.
Tests used:
[1] = tested on: Radical scavenging activity; assay: Antioxidant activity of the compound assessed as DPPH radical scavenging activity after 30 mins by spectrophotometric analysis; type: functional
NCI-H460 = assay: Cytotoxicity against human NCI-H460 cells by SRB assay; type: functional, cell-based
SF-268 = assay: Cytotoxicity against human SF268 cells by SRB assay; type: functional, cell-based
MCF7 = assay: Cytotoxicity against human MCF7 cells by SRB assay; type: functional, cell-based
Candida albicans = assay: Antifungal activity against Candida albicans ATCC 10231 assessed as growth inhibition by broth microdilution method; type: functional
Bacillus subtilis = assay: Antibacterial activity against Bacillus subtilis SCSIO BS01 assessed as growth inhibition by broth microdilution method; type: functional
Bacillus thuringiensis = assay: Antibacterial activity against Bacillus thuringiensis SCSIO BT01 assessed as growth inhibition by broth microdilution method; type: functional
Staphylococcus aureus = assay: Antibacterial activity against Staphylococcus aureus ATCC 29213 assessed as growth inhibition by broth microdilution method; type: functional
Escherichia coli = assay: Antibacterial activity against Escherichia coli ATCC 25922 assessed as growth inhibition by broth microdilution method; type: functional
HUVEC [2] = assay: Antimigratory activity in HUVEC at 17.1 uM up to 72 hrs by scratch wound healing assay relative to DMSO-treated control; type: functional, cell-based; conditions: Homo sapiens
HUVEC [3] = assay: Antimigratory activity in HUVEC at 11.8 uM up to 72 hrs by scratch wound healing assay relative to DMSO-treated control; type: functional, cell-based; conditions: Homo sapiens

MIC (Candida albicans)	MIC (Bacillus subtilis)	MIC (Bacillus thuringiensis)	MIC (Staphylococcus aureus)	MIC (Escherichia coli)	Structure (SMILES)	Activity [1]	IC50 (NCI-H460)	IC50 (SF-268)	IC50 (MCF7)	Activity (HUVEC [2])	Activity (HUVEC [3])
> 128 µg/mL	> 128 µg/mL	> 128 µg/mL	> 128 µg/mL	> 128 µg/mL	C/C=C/C=C/C[C@@H]1C[C@@H]2/C=C/C(C)=C/[C@H]3C=C[C@@H](O)[C@@H](O)[C@@H]3/C(C)=C/C=C/[C@H]2C(=O)N1	inactive	> 100 µM	> 100 µM	> 100 µM		
> 128 µg/mL	> 128 µg/mL	> 128 µg/mL	> 128 µg/mL	> 128 µg/mL	C/C=C/C=C/C[C@@H]1C[C@H](O)[C@H]2[C@@H]3/C(C)=C/[C@H]4C=C[C@@H](O)[C@@H](O)[C@@H]4/C(C)=C/C=C\[C@@H]3C(=O)N12	inactive	> 100 µM	> 100 µM	> 100 µM	inactive	
> 128 µg/mL	> 128 µg/mL	> 128 µg/mL	> 128 µg/mL	> 128 µg/mL	C/C=C/C=C/C[C@@H]1C/C=C/C=C(C)/C=C/C=C\[C@@H](OC(C)=O)[C@@H](OC(C)=O)/C=C(C)/C=C/C=C/C(=O)N1		56.4 µM	23.3 µM	15.4 µM		
> 128 µg/mL	> 128 µg/mL	> 128 µg/mL	> 128 µg/mL	> 128 µg/mL	C/C=C/C=C/C[C@@H]1C/C=C/C=C(C)/C=C/C=C\[C@@H](O)[C@@H](O)/C=C(C)/C=C/C=C/C(=O)N1	inactive	> 100 µM	> 100 µM	> 100 µM		inactive
